Laboratory results taken from patent US10786575B2, “Self-emulsifying composition of Ω3 fatty acid” (priority 2015, dated 2020).
Read-outs that look alike come from different tables or passages of the source.

Columns and labels:
[1] = human, in vivo, po, 3600 mg
Description: (§1) The capsule having the self-emulsifying composition of the present invention containing 80% by weight of EPA-E as its content was orally administered to human (12 cases, healthy adult males of 20 to 40 years old with a body weight of 55.0 to 77.0 kg and a BMI of 18.5 or more but less than 25.0) under fasting conditions to evaluate the change of blood EPA concentration. The self-emulsifying composition in an amount corresponding to 1800 mg of EPA-E was orally administered in single dose to each human who had been fasted since 10 hours or more before the administration by using 200 mL of water in the morning under fasting. The blood was collected 0.5, 1, 1.5, 2, 3, 4, 5, 6, 7, 8, 9, 10, 12, 15, 18, 24, 48 and 72 hours after the administration. Immediately after the collection, the blood was cooled on ice, and centrifuged at 2000×g at 4° C. for 10 minutes to separately collect the plasma. After having stored the resulting plasma at a temperature not higher than −20° C. in frozen state, concentration of the EPA in the plasma was measured by LC/MS/MS (method in which a sample is isolated by liquid chromatography, then subjected to mass spectrometry to conduct separation and measurement thereon).
(§2) The capsule having the self-emulsifying composition of the present invention containing 80% by weight of EPA-E as its content was also orally administered to human immediately after meals, and the measurement was conducted by repeating the procedure as described above.
(§3) For the control group, the EPA-E stock solution (high purity EPA-E (at least 96.5% by weight) containing no emulsifier or the like and used with the same EPA-E amount as that of the self-emulsifying composition of the present invention; the same applying hereafter) filled in the capsule was orally administered to human (12 cases, healthy adult males of 20 to 40 years old with a body weight of 55.0 to 77.0 kg and a BMI of 18.5 or more but less than 25.0) under fasting conditions (fasting since at least 10 hours before the administration), and the measurement was conducted by repeating the procedure as described above.
This test was conducted on 6 humans. […] In the calculation of each parameter, correction was made by subtracting the blood EPA concentration before the administration from the measured blood concentration.

[2] = human, in vivo, po, 1800 mg
Description: as §1, §2, §3
In the calculation of each parameter, correction was made by subtracting the blood EPA concentration before the administration from the measured blood concentration.

[3] = Test Example 5: pharmacokinetics in beagles (plasma EPA, LC/MS/MS); parameters: species or system male beagles; details: dog, in vivo, po, 600 mg
Description: The produced compositions or capsules (Examples 1, 3 and 5) were each orally administered to 6 male beagles (at the age of 2 to 6 years with the body weight of 8 to 13 kg, 3 Marshall beagles and 3 Nosan beagles) under fasting conditions, and blood EPA concentration was evaluated. […] The control group was administered with the EPA-E stock solution encapsulated in a capsule.

AUC0-72 hr [1]: 113700 ng·h/mL | Cmax [1]: 3600 ng/mL | Tmax [1]: 21.8 h | t½ [1]: 22.8 h | AUC0-72 hr [2]: 113100 ng·h/mL | Cmax [2]: 4600 ng/mL | Tmax [2]: 10.8 h | t½ [2]: 71.7 h | AUC0-1 [3]: 11300 ng·h/mL | AUC0-26 [3]: 76600 ng·h/mL | Cmax [3]: 18400 ng/mL
Compound: CC/C=C\C/C=C\C/C=C\C/C=C\C/C=C\CCCC(=O)OCC [Comp. Ex. 5, Ethyl eicosapentaenoate]
